From patent US20250059205A1, “Heterocyclic Compounds and Methods of Use” (AMGEN INC., priority 2021, published 2025)

Assays:
[1] = biological target: His-tagged KRAS G12D protein (Homo sapiens, UniProt P01116, G12D); assay: KRAS G12D TR-FRET Assay; format: binding
[2] = biological target: GDP-bound KRAS protein (aa 1-169), containing both G12D and C118A amino acid substitutions (Homo sapiens, UniProt P01116, C118A/G12D); assay: KRAS G12D Coupled Nucleotide Exchange Assay; format: biochemical; conditions: 2 h compound pre-incubation
Method: Following compound pre-incubation, purified SOS protein (aa 564-1049) and GTP (Roche 10106399001) were added to the assay wells and incubated for an additional 30 min. […] The assay plates were then read on a PerkinElmer EnVision Multilabel Reader, using AlphaScreen® technology, and data were analyzed using a 4-parameter logistic model to calculate IC50 values.

[3] = tested on: Phosphorylation of ERK1/2 in A-427 cells; assay: Phospho-ERK1/2 MSD Assay (A-427 cells); format: cell-based; conditions: Homo sapiens, A-427, 2 h, 2 h treatment, read-out: p-ERK (A427 cells) IC50
Summary of the method: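 ERK1/2 phosphorylation measured by Meso Scale whole-cell lysate assay after A-427 cells were exposed to a titration of compound for 2 h at 37 °C.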

[4] = tested on: Phosphorylation of ERK1/2 in AsPC-1 cells; assay: Phospho-ERK1/2 MSD Assay (AsPC-1 cells); format: cell-based; conditions: Homo sapiens, ASPC1, 2 h, 2 hours treatment, read-out: p-ERK (AsPC-1 cells) IC50
Summary of the method: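 Read-out: MSD electrochemiluminescent detection of phosphorylated ERK1/2 in whole-cell lysates, fitted to a 4-parameter logistic curve for IC50. Prior to lysis, AsPC-1 cells (25,000 per well) received a 2 h compound dose-response at 37 °C.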

Sequence of GDP-bound KRAS protein (aa 1-169), containing both G12D and C118A amino acid substitutions (P01116 1-169 isoform P01116-2 G12D/C118A): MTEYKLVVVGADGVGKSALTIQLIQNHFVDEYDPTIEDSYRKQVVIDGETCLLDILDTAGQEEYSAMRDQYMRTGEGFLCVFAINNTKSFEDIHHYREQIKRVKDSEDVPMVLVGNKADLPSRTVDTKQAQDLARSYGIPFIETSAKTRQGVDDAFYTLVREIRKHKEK
Sequence of His-tagged KRAS G12D protein (P01116 1-188 isoform P01116-2 G12D): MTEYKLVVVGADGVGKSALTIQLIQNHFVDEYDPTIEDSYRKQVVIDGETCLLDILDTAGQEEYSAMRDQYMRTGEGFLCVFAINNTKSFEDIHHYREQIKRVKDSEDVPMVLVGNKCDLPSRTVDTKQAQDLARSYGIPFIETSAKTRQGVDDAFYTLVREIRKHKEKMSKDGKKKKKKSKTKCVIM

Structure (SMILES)	IC50 [1]	Avg 2 h Coupled Exchange IC50 [2]	IC50 [3]	IC50 [4]
Fc1cc2c(N3C[C@H]4CC[C@@H](C3)N4)nc(OC[C@@]34CCCN3C[C@H](F)C4)nc2c(F)c1-c1cccc2ccc(F)c(F)c12 [Example 155, 4-((1R,5S)-3,8-diazabicyclo[3.2.1]octan-3-yl)-7-(7,8-difluoronaphthalen-1-yl)-6,8-difluoro-2-(((2R,7aS)-2-fluorotetrahydro-1H-pyrrolizin-7a(5H)-yl)methoxy) quinazoline]	0.005 µM	0.003 µM	0.639 µM	0.667 µM
O=c1cc(-c2ccc3c(N4C[C@H]5CC[C@@H](C4)N5)nc(OC[C@@]45CCCN4C[C@H](F)C5)nc3c2F)c2ccccc2[nH]1 [Example 222, 4-(4-((1R,5S)-3,8-diazabicyclo[3.2.1]octan-3-yl)-8-fluoro-2-(((2R,7aS)-2-fluorotetrahydro-1H-pyrrolizin-7a(5H)-yl)methoxy)quinazolin-7-yl)quinolin-2-ol]	0.255 µM	0.074 µM	> 10 µM	> 10 µM
Cc1c(-c2cc(O)cc3ccccc23)ccc2c(N3CC4CCC(C3)N4)nc(OCC34CCCN3C[C@H](F)C4)nc12 (stereo in doubt) [Example 32, 4-(4-((1R,5S)-3,8-diazabicyclo[3.2. 1]octan-3-yl)-2-(((2R,7aS)-2-fluorotetrahydro-1H-pyrrolizin-7a(5H)-yl)methoxy)-8-methylquinazolin-7-yl)naphthalen-2-ol]	0.005 µM	0.002 µM	0.341 µM	0.712 µM
Cc1c(Cl)cc2[nH]ncc2c1-c1ccc2c(N3C[C@H]4CC[C@@H](C3)N4)nc(OC[C@@]34CCCN3C[C@H](F)C4)nc2c1F [Example 192, 4-((1R,5S)-3,8-Diazabicyclo[3.2.1]octan-3-yl)-7-(6-chloro-5-methyl-1H-indazol-4-yl)-8-fluoro-2-(((2R,7aS)-2-fluorotetrahydro-1H-pyrrolizin-7a(5H)-yl)methoxy)quinazoline]	0.004 µM	0.002 µM	0.15 µM	0.532 µM
CCc1c(F)ccc2cc(O)cc(-c3ccc4c(N5C[C@H]6CC[C@@H](C5)N6)nc(OCC(C)(C)O)nc4c3F)c12 [Example 131, 4-(4-((1R,5S)-3,8-diazabicyclo[3.2.1]octan-3-yl)-8-fluoro-2-(2-hydroxy-2-methylpropoxy)quinazolin-7-yl)-5-ethyl-6-fluoronaphthalen-2-ol]	0.009 µM	0.005 µM	0.682 µM	0.926 µM
Cc1c(-c2cc(O)cc3ccccc23)ccc2c(N3C[C@H]4CC[C@@H](C3)N4)nc(OC[C@@]34CCCN3C[C@H](F)C4)nc12 [Example 33, 4-(4-((1R,5S)-3,8-diazabicyclo[3.2. 1]octan-3-yl)-2-(((2R,7aS)-2-fluorotetrahydro-1H-pyrrolizin-7a(5H)-yl)methoxy)-8-methylquinazolin-7-yl)naphthalen-2-ol]	0.008 µM	0.003 µM	0.291 µM	0.509 µM
Oc1cc(-c2ccc3c(N4[C@@H]5CC[C@H]4CNC5)nc(OC[C@@]45CCCN4C[C@H](F)C5)nc3c2F)c2ncccc2c1 [Example 25, 8-(4-((1R,5S)-3,8-diazabicyclo[3.2. 1]octan-8-yl)-8-fluoro-2-(((2R,7aS)-2-fluorotetrahydro-1H-pyrrolizin-7a(5H)-yl)methoxy)quinazolin-7-yl)quinolin-6-ol]	0.058 µM	0.017 µM	5.05 µM	14.8 µM
Oc1cc(-c2ccc3c(N4C[C@H]5CC[C@@H](C4)N5)nc(OC[C@@]45CCCN4C[C@H](F)C5)nc3c2)c2c(F)c(F)ccc2c1 [Example 77, 4-(4-((1R,5S)-3,8-diazabicyclo[3.2. 1]octan-3-yl)-2-(((2R,7aS)-2-fluorotetrahydro-1H-pyrrolizin-7a(5H)-yl)methoxy)quinazolin-7-yl)-5,6-difluoronaphthalen-2-ol]	0.003 µM	0.002 µM	0.038 µM	0.062 µM
Oc1cc(-c2c(F)cc3c(N4[C@@H]5CC[C@H]4CNC5)nc(OC[C@@]45CCCN4C[C@H](F)C5)nc3c2F)c2ncccc2c1 [Example 27, 8-(4-((1R,5S)-3,8-diazabicyclo[3.2. 1]octan-8-yl)-6,8-difluoro-2-(((2R,7aS)-2-fluorotetrahydro-1H-pyrrolizin-7a(5H)-yl)methoxy)quinazolin-7-yl)quinolin-6-ol]	0.047 µM	0.021 µM	0.865 µM	5.23 µM
Nc1cc(-c2ccc3c(N4[C@@H]5CC[C@H]4CNC5)nc(OC[C@@]45CCCN4C[C@H](F)C5)nc3c2F)c2ccccc2c1 [Example 26, 4-(4-((1R,5S)-3,8-diazabicyclo[3.2. 1]octan-8-yl)-8-fluoro-2-(((2R,7aS)-2-fluorotetrahydro-1H-pyrrolizin-7a(5H)-yl)methoxy)quinazolin-7-yl)naphthalen-2-amine]	0.034 µM	0.018 µM	1.11 µM	0.692 µM
Nc1cc(-c2c(F)cc3c(N4C[C@@H]5CC[C@H]4CN5)nc(OC[C@@]45CCCN4C[C@H](F)C5)nc3c2F)c2ccccc2c1 [Example 117, 4-(4-((1S,4S)-2,5-diazabicyclo[2.2.2]octan-2-yl)-6,8-difluoro-2-(((2R,7aS)-2-fluorotetrahydro-1H-pyrrolizin-7a(5H)-yl)methoxy)quinazolin-7-yl)naphthalen-2-amine]	0.013 µM	0.007 µM	0.411 µM	0.899 µM
CCc1cccc2cc(O)cc(-c3ccc4c(N5C[C@H]6CC[C@@H](C5)N6)nc(OC[C@@]56CCCN5C[C@H](F)C6)nc4c3C)c12 [Example 168, 4-(4-((1R,5S)-3,8-diazabicyclo[3.2.1]octan-3-yl)-2-(((2R,7aS)-2-fluorotetrahydro-1H-pyrrolizin-7a(5H)-yl)methoxy)-8-methylquinazolin-7-yl)-5-ethylnaphthalen-2-ol]	0.004 µM	0.008 µM	0.078 µM	0.243 µM
C#Cc1cccc2cc(O)cc(-c3cc4nc(OC[C@@]56CCCN5C[C@H](F)C6)nc(N5C[C@H]6CC[C@@H](C5)N6)c4cc3F)c12 [Example 182, 4-(4-((1R,5S)-3,8-diazabicyclo[3.2.1]octan-3-yl)-6-fluoro-2-(((2R,7aS)-2-fluorotetrahydro-1H-pyrrolizin-7a(5H)-yl)methoxy)quinazolin-7-yl)-5-ethynylnaphthalen-2-ol]	0.001 µM	0.002 µM	0.004 µM	0.033 µM
Cc1cccc2cccc(-c3ccc4c(N5[C@@H]6CC[C@H]5CNC6)nc(OC[C@@]56CCCN5C[C@H](F)C6)nc4c3F)c12 [Example 28, 4-((1R,5S)-3,8-diazabicyclo[3.2. 1]octan-8-yl)-8-fluoro-2-(((2R,7aS)-2-fluorotetrahydro-1H-pyrrolizin-7a(5H)-yl)methoxy)-7-(8-methylnaphthalen-1-yl)quinazoline]	0.09 µM	0.044 µM	> 10 µM	3.61 µM
Oc1ccc(-c2c(F)cc3c(N4C[C@H]5CC[C@@H](C4)N5)nc(OC[C@@]45CCCN4C[C@H](F)C5)nc3c2F)c2ccccc12 [Example 122, 4-(4-((1R,5S)-3,8-diazabicyclo[3.2.1]octan-3-yl)-6,8-difluoro-2-(((2R,7aS)-2-fluorotetrahydro-1H-pyrrolizin-7a(5H)-yl)methoxy)quinazolin-7-yl)naphthalen-1-ol]	0.005 µM	0.005 µM	0.167 µM	0.282 µM
Oc1cc(-c2c(F)cc3c(N4C[C@H]5CC[C@@H](C4)N5)nc(OC[C@@]45CCCN4C[C@H](F)C5)nc3c2F)c2c(F)cccc2c1 [Example 159, 4-(4-((1R,5S)-3,8-diazabicyclo[3.2.1]octan-3-yl)-6,8-difluoro-2-(((2R,7aS)-2-fluorotetrahydro-1H-pyrrolizin-7a(5H)-yl)methoxy)quinazolin-7-yl)-5-fluoronaphthalen-2-ol]	0.003 µM	0.005 µM	0.013 µM	0.077 µM
Oc1cc(-c2ccc3c(N4C[C@H]5CC[C@@H](C4)N5)nc(OC[C@@]45CCCN4C[C@H](F)C5)nc3c2F)c2c(F)c(F)ccc2c1 [Example 142, 4-(4-((1R,5S)-3,8-diazabicyclo[3.2.1]octan-3-yl)-8-fluoro-2-(((2R,7aS)-2-fluorotetrahydro-1H-pyrrolizin-7a(5H)-yl)methoxy)quinazolin-7-yl)-5,6-difluoronaphthalen-2-ol]	0.002 µM	0.002 µM	0.006 µM	0.019 µM
N#Cc1cccc2cccc(-c3c(F)cc4c(N5C[C@H]6CC[C@@H](C5)N6)nc(OC[C@@]56CCCN5C[C@H](F)C6)nc4c3F)c12 [Example 60, 8-(4-((1R,5S)-3,8-diazabicyclo[3.2. 1]octan-3-yl)-6,8-difluoro-2-(((2R,7aS)-2-fluorotetrahydro-1H-pyrrolizin-7a(5H)-yl)methoxy)quinazolin-7-yl)-1-naphthonitrile]	0.008 µM	0.004 µM	0.53 µM	0.418 µM
